Measured values reported in patent US20100048536A1, “Novel Substituted Diaryl Azepine Derivatives as Integrin Ligands” (priority 2000, published 2010).

Molecular target: T1, integrin αvβ3 (Homo sapiens, UniProt P05106+P06756)
T1 construct: from tissue; host or cells: human placenta
Assay: Integrin αvβ3 assay (competition with vitronectin for binding to solid phase-bound integrin αvβ3)
Conditions: integrin αvβ3 from human placenta, qualitative ranking only
Procedure: For the identification and assessment of integrin αvβ3 ligands, a test system was used which was based on competition between the natural integrin αvβ3 ligand vitronectin and the test substance for binding to solid phase-bound integrin αvβ3
• Microtiter plates coated with 250 ng/ml of integrin αvβ3 in 0.05 M NaHCO3 pH 9.2; 0.1 ml/well; • saturation with 1% powdered milk/assay buffer; 0.3 ml/well; 0.5 h/RT • 3× washing with 0.05% Tween 20/assay buffer • test substance in 0.1% powdered milk/assay buffer, 50 μl/well+0 μg/ml or 2 μg/ml of human vitronectin (Boehringer Ingelheim T007) in 0.1% powdered milk/assay buffer, 50 μl/well; 1 h/RT • 3× washing with 0.05% Tween 20/assay buffer • 1 μg/ml of anti human vitronectin antibody coupled to peroxidase (Kordia SAVN-APHRP) in 0.1% powdered milk/assay buffer; 0.1 ml/well; 1 h/RT • 3× washing with 0.05% Tween 20/assay buffer • 0.1 ml/well of peroxidase substrate • stop reaction with 0.1 ml/well of 2 M H2SO4 • measurement of the absorption at 450 nm
Integrin αvβ3: Human placenta is solubilized with Nonidet and integrin αvβ3 affinity-purified on a GRGDSPK matrix (elution with EDTA). Impurities due to integrin αIIbβ3 and human serum albumin, and the detergent and EDTA are removed by anion-exchange chromatography. […]

Structure (SMILES): CN1C(=O)c2ccccc2C(CC(=O)O)c2ccc(OCCCCNc3ccccn3)cc21 (stereo not shown) [Example I, {5-Methyl-6-oxo-3-{4-(2-pyridinylamino)-butoxy]-6,11-dihydro 5H-dibenzo[b,e]azepin-11-yl}acetic acid]
- IC50 values (concentration of the ligand at which 50% of the ligand is displaced): best result
